# Assay results: patent publication US20080293699A1, “Inhibitors of thapsigargin-induced cell death” (priority 2007, published 2008)
# What was measured:
# [1] = test system: differentiated CSM14.1 cells; assay: ATP content assay, thapsigargin-treated differentiated CSM14.1 cells; format: cell-based, rat
# Experimental: Of the 26 compounds shown in Table 9, 16 were subsequently confirmed to protect differentiated CSM14.1 cells from TG-induced cell death. For these assays, CSM14.1 cells were differentiated by culture in 2% FBS for 7 days at non-permissive temperature of 39° C. […] CSM14.1 cells were plated at 1,500 cells per well in 96-well plates, and cultured overnight at 32° C. (permissive temperature; FIG. 14, left) or at 39° C. (non-permissive temperature, FIG. 14, right) for 7 days. […] ATP content was measured, and data were expressed as a percentage of control cells treated only with 1% DMSO (mean ±SD; n=3). Two percent FBS was used during differentiation, but all assays were performed in 10% FBS.
# For PC12, cells were stimulated with 20 ng/ml NGF for five days; for C17.2, cells were stimulated with serum reduction, and 1% N2 incubation for three days; for CSM14.1, cells were cultured at 39° C. for 5-7 days.
# CSM14.1 cells were plated at 1,500 cells per well in 96-well plates and cultured at 39° C. (non-permissive temperature) for 7 days. […] ATP content was measured and data were expressed as a percentage of control cells treated with only 1% DMSO.
# [2] = test system: protein phosphatase 2B (Calcineurin); assay: In vitro phosphatase assay with immunoprecipitated ASK1 (ser 967 site) as substrate; format: biochemical; conditions: 100 μM
# [3] = test system: CSM14.1 cells; assay: Annexin V staining viability assay (flow cytometry), thapsigargin-treated undifferentiated CSM14.1 cells; format: cell-based, rat; conditions: hit compounds 25 μM, TG 15 μM
# Experimental: Undifferentiated CSM14.1 cells were cultured as for FIG. 16. The next day, DMSO (a, b) (1% final volume), 100 μM Salubrinal (c, d) or 25 μM of hit compounds (1% final DMSO) was added. After two hrs, 15 μM TG was added to all wells except a and c. The plates were returned to culture for 24 hrs, then cells were recovered by trypsinization, transferred to 1.5 ml microcentrifuge tubes, and resuspended in 0.5 mL of Annexin V-binding solution. The percentage of annexin V-negative cells was determined by flow-cytometry (y-axis). Treatments and compounds were the same as in FIG. 16.
# One method we have employed, for example, for confirming protection against TG-induced killing uses fluorochrome-conjugated annexin V staining with flow-cytometry analysis to evaluate the percentage cell viability by a method that is independent of the ATP content assay.
# FIGS. 16 and 17 show the results of a secondary assay for evaluating the cytoprotective activity of the compounds. In FIG. 16, undifferentiated CSM14.1 cells were cultured at 10^4 cells per well of 24-well plates (Greiner Bio One). The next day, DMSO (a, b) (1% final volume), 100 μM Salubrinal (c, d) or 25 μM of hit compounds (1% final DMSO) was added. After two hrs, 15 μM TG was added to all wells except a and c. A conventional ATP assay was performed to measure survival rate. In FIG. 17 undifferentiated CSM14.1 cells were cultured at 10^4 cells per well of 24-well plates (Greiner Bio One). The next day, DMSO (a, b) (1% final volume), 100 μM Salubrinal (c, d) or 25 μM of hit compounds (1% final DMSO) was added. After two hrs, 15 μM TG was added to all wells except a and c. […] The percentage of annexin V-negative cells was determined by flow-cytometry (y-axis), using a FACSort instrument (Beckton-Dickinson). […]
# 7) The percentage of annexin V-negative cells was determined by flow-cytometry (y-axis), using a FACSort analysis facility in Burnham (Beckton & Dickinson)
# [4] = test system: primary mouse neuronal cells; assay: Thapsigargin-induced death of primary mouse neuronal cells, immunostaining and microscopy; format: cell-based; conditions: 25 μM, two hours before thapsigargin for 24 hours
# Experimental: (§1) Primary cortical neuron cells were prepared from the […] of mice. After 14 days of maturation, the cells were preincubated with DMSO (0.2%) or 25 μM of compound 6239507 for two hours. The cells were then treated with thapsigargin (TG) for 24 hours. Cells were fixed with an aldehyde solution and subjected to immunostaining with NeuN and MAP2 antibody for staining the neuronal body and axon network. Hoechst dye was used to stain nuclei. To show the loss of the axon network by thapsigargin, a wide field was captured by fluorescent microscopy. Cells showing a condensed nucleus and shrunken neuritis were considered as dead to evaluate cell death.
# as §1, with “Fluorescent microscopy was used to” for “To”, “thapsigargin.” for “thapsigargin, a wide field was captured by fluorescent microscopy.”
Compound,"Protection of differentiated CSM14.1 cells from thapsigargin-induced death ([1]; compound 25 μM with 10 μM thapsigargin, Salubrinal 100 μM)","Cytoprotective activity, CSM 14.1 diff (Result) ([1]; thapsigargin 15 μM, compound ≦25 μM)",Activity of protein phosphatase 2B (Calcineurin) [2],Protection against TG-induced cell death measured by annexin V staining [3],Inhibition of ER stress-induced cell death in primary mouse neuronal cells [4]
"CCN(CC)c1ccc(C2Nc3ccccc3NC3=C2C(=O)CC(c2ccccc2)C3)cc1 (centres unmarked) [Compound 5962123, 6-(4-diethylaminophenyl)-9-phenyl-5,6,8,9,10,11-hexahydrobenzo[c][1,5]benzodiazepin-7-one]",confirmed,+ (+indicates >50% rescue of cell viability relative to untreated cells not exposed to thapsigargin at compound concentration of ≦25 μM),did not affect,confirmed,
COc1ccc(C2CC(=O)C3=C(C2)Nc2ccccc2NC3c2cccc(Oc3ccccc3)c2)cc1OC (centres unmarked) [Compound 6239507],,,,,can inhibit
